Assay results as given in patent publication US12679807B2 (MERCK SHARP & DOHME LLC, priority 2020, dated 2026).

target: T1, GCS enzyme contained within Golgi preparations isolated from human A375 malignant melanoma skin cells (Homo sapiens, UniProt Q16739); assay: UDP-Glo glucosylceramide synthase biochemical assay; settings: crude Golgi preparation from A375 cells; C6 ceramide and UDP-glucose substrates; 20 h incubation at room temperature; UDP detected by luminescence
T1 construct: endogenous levels of GCS enzyme contained within Golgi preparations isolated from human A375 malignant melanoma skin cells; endogenous in cells; host or cells: A375 human malignant melanoma cells (crude Golgi preparation)
T1 sequence (Q16739 1-394): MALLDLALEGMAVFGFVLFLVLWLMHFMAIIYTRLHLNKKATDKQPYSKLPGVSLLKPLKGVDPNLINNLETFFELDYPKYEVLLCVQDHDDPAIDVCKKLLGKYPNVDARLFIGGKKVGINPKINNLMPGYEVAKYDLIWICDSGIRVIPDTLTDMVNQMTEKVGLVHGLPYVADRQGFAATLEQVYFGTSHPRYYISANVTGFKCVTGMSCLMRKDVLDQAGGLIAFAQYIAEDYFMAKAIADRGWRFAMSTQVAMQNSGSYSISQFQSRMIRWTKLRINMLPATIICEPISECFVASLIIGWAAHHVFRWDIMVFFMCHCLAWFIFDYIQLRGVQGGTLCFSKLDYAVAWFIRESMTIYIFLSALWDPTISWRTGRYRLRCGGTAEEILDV
Source text: UDP-Glo™ Glucosylceramide Synthase Biochemical Assay
A UDP-Glo™ glucosylceramide synthase biochemical assay was utilized to evaluate the effect of test compounds on the activity of endogenous levels of GCS enzyme contained within Golgi preparations isolated from human A375 malignant melanoma skin cells. The UDP-Glo™ glucosylceramide synthase assay uses UDP-Glucose as a nucleotide-glycosyl donor and ceramide as substrate acceptor molecules. In the reaction, glucosylceramide synthase (GCS) transfers glucose from UDP-Glucose to ceramide. Glucosylceramide and UDP are released as products.
Using Promega's UDP-Glo™ Glycosyltransferase assay kit (Promega Corporation, Madison, WI, USA (Promega)), GCS activity was indirectly measured by detecting the amount of UDP produced. An aliquot of GCS enzyme (1.5 μg crude golgi preparation, total protein) and titrated test compound were aliquoted to each well and incubated for 30 minutes at room temperature. […] An equivalent volume of substrate mixture was then added to each well. Following a 20 h incubation at room temperature to allow for GCS turnover of substrate, an equal volume of UDP detection reagent (Promega) was added to each well and incubated for an additional 75 minutes at room temperature to simultaneously convert the accumulated UDP product into ATP and generate light in a luciferase reaction. The generated light was detected using a luminometer. […] luminescence values (RLUs) were normalized to mean “min” and “max” effects, as determined on each plate. […] Values for % Emax and EC50 were determined by best-fitting the normalized data to a curve in Activity Base along a four-parameter logistic nonlinear regression (4PL) model (based on the Levenberg-Marquardt algorithm and defined by the equation below):
[formula] where: n is 4 PMin (bottom of the curve); m is 4 PMax (top of the curve); i is IP (inflection point of curve); and p is slope. See Levenberg, K., “A Method for the Solution of Certain Problems in Least Squares”, Quart. Appl. Math. […] Math.

| EC50 [nM] | Compound |
| --- | --- |
| 38 | O=C(Nc1cccc2c1C(=O)N(CC1CC1)C2)c1c2c(nc3ccccc13)CCC2 [Compound 128, N-(2-(cyclopropylmethyl)-3-oxoisoindolin-4-yl)-2,3-dihydro-1H-cyclopenta[b]quinoline-9-carboxamide] |
| 5.7 | O=C(Nc1cccc2c1C(=O)N(C(C1CC1)C1CC1)C2)c1c(Cl)cnc2c1OCO2 [Compound 118, 6-chloro-N-(2-(dicyclopropylmethyl)-3-oxoisoindolin-4-yl)-[1,3]dioxolo[4,5-b]pyridine-7-carboxamide] |
| 500 | Cc1cc2c(c(NC(=O)c3ccnc4c3CCC4)c1)C(=O)N(CC1CC1)C2 [Compound 148, N-(2-(Cyclopropylmethyl)-6-methyl-3-oxoisoindolin-4-yl)-6,7-dihydro-5H-cyclopenta[b]pyridine-4-carboxamide] |
| 140 | O=C(Nc1cccc2c1C(=O)N(C(C1CC1)C1CC1)C2)c1ccc(F)c2c1CCC2=O [Compound 142, N-(2-(dicyclopropylmethyl)-3-oxoisoindolin-4-yl)-7-fluoro-1-oxo-2,3-dihydro-1H-indene-4-carboxamide] |
| 40 | O=C(Nc1cccc2c1C(=O)N(CC1CC1)C2)c1c(C(F)(F)F)cnc2ccccc12 [Compound 130, N-(2-(cyclopropylmethyl)-3-oxoisoindolin-4-yl)-3-(trifluoromethyl)quinoline-4-carboxamide] |
| 190 | O=C(Nc1cccc2c1C(=O)N(CC1CC1)C2)c1ccnc2ccc(F)cc12 [Compound 144, N-(2-(cyclopropylmethyl)-3-oxoisoindolin-4-yl)-6-fluoroquinoline-4-carboxamide] |
| 5.9 | Cn1cc2c(C(=O)Nc3cccc4c3C(=O)N(C(C3CC3)C(C)(C)O)C4)cccc2n1 (single isomer, unassigned) [Compound 160, (R or S)-N-(2-(1-cyclopropyl-2-hydroxy-2-methylpropyl)-3-oxoisoindolin-4-yl)-2-methyl-2H-indazole-4-carboxamide] |
| 80 | COCC(C1CC1)N1Cc2cccc(NC(=O)c3ccnc4c3CCC4)c2C1=O (single isomer, unassigned) [Compound 136, (R or S)-N-(2-(1-cyclopropyl-2-methoxyethyl)-3-oxoisoindolin-4-yl)-6,7-dihydro-5H-cyclopenta[b]pyridine-4-carboxamide] |
| 45 | CC(C)(O)C(C1CC1)N1Cc2cccc(NC(=O)c3cccc4ncsc34)c2C1=O (single isomer, unassigned) [Compound 131, (R or S)-N-(2-(1-cyclopropyl-2-hydroxy-2-methylpropyl)-3-oxoisoindolin-4-yl)benzo[d]thiazole-7-carboxamide] |

Second part, the compound before the results:

| Compound | EC50 [nM] |
| --- | --- |
| CC(C)(O)[C@@H](C1CC1)N1Cc2cccc(-c3cc(Cl)cc(C#N)n3)c2C1=O [Compound 92, 4-chloro-6-[2-[(1R)-1-cyclopropyl-2-hydroxy-2-methyl-propyl]-3-oxo-isoindolin-4-yl]pyridine-2-carbonitrile] | 33 |
| Cc1nnc(-c2ccc(-c3cncc4c3C(=O)N(C(C3CC3)C(C)(C)O)C4)cc2)o1 (single isomer, unassigned) [Compound 31, (R or S)-2-(1-cyclopropyl-2-hydroxy-2-methylpropyl)-7-(4-(5-methyl-1,3,4-oxadiazol-2-yl)phenyl)-2,3-dihydro-1H-pyrrolo[3,4-c]pyridin-1-one] | 180 |
| Cc1nnc(-c2ccc(-c3c(F)cc(O)c4c3C(=O)N([C@H](C3CC3)C(C)(C)O)C4)cc2)o1 [Compound 59, (R)-2-(1-cyclopropyl-2-hydroxy-2-methylpropyl)-6-fluoro-4-hydroxy-7-(4-(5-methyl-1,3,4-oxadiazol-2-yl)phenyl) isoindolin-1-one] | 9.9 |
| COC(C)(C)[C@@H](C1CC1)N1Cc2cccc(-c3ccc(-c4nnc(C)o4)cc3)c2C1=O [Compound 57, (R)-2-(1-cyclopropyl-2-methoxy-2-methylpropyl)-7-(4-(5-methyl-1,3,4-oxadiazol-2-yl)phenyl)isoindolin-1-one] | 260 |
| O=C1c2c(cccc2-c2ccc(F)cc2)CN1CCC1CN2CCC1CC2 (racemic) [Compound 52, (R and S)-7-(4-fluorophenyl)-2-(2-(quinuclidin-3-yl)ethyl)isoindolin-1-one] | 160 |
| Cc1ccc(Cl)c(C(=O)Nc2cccc3c2C(=O)N(C(C2CC2)C(C)(C)O)C3)c1F (single isomer, unassigned) [Compound 111, (R or S)-6-chloro-N-(2-(1-cyclopropyl-2-hydroxy-2-methylpropyl)-3-oxoisoindolin-4-yl)-2-fluoro-3-methylbenzamide] | 0.26 |
| Cn1cc(-c2ccc(-c3cccc4c3C(=O)N([C@H](C3CC3)C(C)(C)O)C4)cc2)nn1 [Compound 94, 2-[(1R)-1-cyclopropyl-2-hydroxy-2-methyl-propyl]-7-[4-(1-methyltriazol-4-yl)phenyl]isoindolin-1-one] | 24 |
| CC(C)(O)C(C1CC1)N1Cc2cccc(NC(=O)c3ccnc4c3OCCO4)c2C1=O (single isomer, unassigned) [Compound 163, (R or S)-N-(2-(1-cyclopropyl-2-hydroxy-2-methylpropyl)-3-oxoisoindolin-4-yl)-2,3-dihydro-[1,4]dioxino[2,3-b]pyridine-8-carboxamide] | 61 |
| Cc1c(C(=O)Nc2cccc3c2C(=O)N(C(C2CC2)C(C)(C)O)C3)cccc1C(F)(F)F (single isomer, unassigned) [Compound 120, (R or S)-N-(2-(1-cyclopropyl-2-hydroxy-2-methylpropyl)-3-oxoisoindolin-4-yl)-2-methyl-3-(trifluoromethyl)benzamide] | 10 |
| CC[C@@H](N1Cc2cccc(-c3ccc(-c4nnc(C)o4)cc3)c2C1=O)C(C)(C)O [Compound 48, 2-[(1R)-1-ethyl-2-hydroxy-2-methyl-propyl]-7-[4-(5-methyl-1,3,4-oxadiazol-2-yl)phenyl]isoindolin-1-one] | 81 |
| C[C@@H](N1Cc2cccc(-c3ccccc3OCC(F)(F)F)c2C1=O)C(C)(C)O [Compound 46, (R)-2-(3-hydroxy-3-methylbutan-2-yl)-7-(2-(2,2,2-trifluoroethoxy)phenyl) isoindolin-1-one] | 140 |
| Cn1cc(-c2ccc(-c3cncc4c3C(=O)N([C@H](C3CC3)C(C)(C)O)C4)cc2)cn1 [Compound 32, (R)-2-(1-cyclopropyl-2-hydroxy-2-methylpropyl)-7-(4-(1-methyl-1H-pyrazol-4-yl)phenyl)-2,3-dihydro-1H-pyrrolo[3,4-c]pyridin-1-one] | 57 |
| Cc1cccc(C(=O)Nc2cccc3c2C(=O)N(C(C2CC2)C(C)(C)O)C3)c1Cl (single isomer, unassigned) [Compound 113, (R or S)-2-chloro-N-(2-(1-cyclopropyl-2-hydroxy-2-methylpropyl)-3-oxoisoindolin-4-yl)-3-methylbenzamide] | 1.2 |
| CC(C)(O)C(C1CC1)N1Cc2cccc(/C=C/c3ccc(F)cc3F)c2C1=O (racemic) [Compound 4, (R and S)-(E)-2-(1-cyclopropyl-2-hydroxy-2-methylpropyl)-7-(2,4-difluorostyryl)isoindolin-1-one] | 290 |
| Cc1cc(-c2ccnc3c2C(=O)N([C@H](C2CC2)C(C)(C)O)C3)c(F)cc1-c1cnn(C)c1 [Compound 35, (R)-6-(1-cyclopropyl-2-hydroxy-2-methylpropyl)-4-(2-fluoro-5-methyl-4-(1-methyl-1H-pyrazol-4-yl)phenyl)-6,7-dihydro-5H-pyrrolo[3,4-b]pyridin-5-one] | 6.8 |
| COc1cc(-c2cccc3c2C(=O)N([C@H](C2CC2)C(C)(C)O)C3)ccc1-c1nnc(C)o1 [Compound 67, (R)-2-(1-cyclopropyl-2-hydroxy-2-methylpropyl)-7-(3-methoxy-4-(5-methyl-1,3,4-oxadiazol-2-yl)phenyl)isoindolin-1-one] | 12 |
